Peptide text beside a SMILES is read from it. * marks the point of attachment. Palmitoyl = CCCCCCCCCCCCCCCC(=O)*
Assay: Solubility in DI water at 1 wt % (visual observation, FIG. 5)
Assay type: physicochemical
Experimental: PA-C16-GTAGLKKK-YIGSR (SEQ ID NO: 19) and PA-C16-GTAKKKKK-YIGSR (SEQ ID NO:20) were dissolved in DI water at 1 wt %. […] Higher percent transmittance indicates less opaqueness of solution, which corresponds with increased solubility of the peptide amphiphiles in DI water. Thus, PA-C16-GTAGLKKK-YIGSR (SEQ ID NO: 19) and PA-C16-GTAKKKKK-YIGSR (SEQ ID NO:20) are more soluble than unmodified PA-C16-GTAGLIGQ-YIGSR (SEQ ID NO:21).

solubility | SMILES
form homogenous, transparent solutions | CCCCCCCCCCCCCCCC(=O)NCC(=O)N[C@H](C(=O)N[C@@H](C)C(=O)N[C@@H](CCCCN)C(=O)N[C@@H](CCCCN)C(=O)N[C@@H](CCCCN)C(=O)N[C@@H](CCCCN)C(=O)N[C@@H](CCCCN)C(=O)N[C@@H](Cc1ccc(O)cc1)C(=O)N[C@H](C(=O)NCC(=O)N[C@@H](CO)C(=O)N[C@@H](CCCNC(=N)N)C(=O)O)[C@@H](C)CC)[C@@H](C)O [PA-C16-GTAKKKKK-YIGSR, PA-C16-GTAKKKKK-YIGSR (SEQ ID NO:20)] (Palmitoyl-GTAKKKKKYIGSR-OH; N-terminus and C-terminus assumed)
insoluble and forms precipitates | CCCCCCCCCCCCCCCC(=O)NCC(=O)N[C@H](C(=O)N[C@@H](C)C(=O)NCC(=O)N[C@@H](CC(C)C)C(=O)N[C@H](C(=O)NCC(=O)N[C@@H](CCC(N)=O)C(=O)N[C@@H](Cc1ccc(O)cc1)C(=O)N[C@H](C(=O)NCC(=O)N[C@@H](CO)C(=O)N[C@@H](CCCNC(=N)N)C(=O)O)[C@@H](C)CC)[C@@H](C)CC)[C@@H](C)O [PA-C16-GTAGLIGQ-YIGSR, PA-C16-GTAGLIGQ-YIGSR (SEQ ID NO:21), reference compound] (Palmitoyl-GTAGLIGQYIGSR-OH; N-terminus and C-terminus assumed)
form homogenous, transparent solutions | CCCCCCCCCCCCCCCC(=O)NCC(=O)N[C@H](C(=O)N[C@@H](C)C(=O)NCC(=O)N[C@@H](CC(C)C)C(=O)N[C@@H](CCCCN)C(=O)N[C@@H](CCCCN)C(=O)N[C@@H](CCCCN)C(=O)N[C@@H](Cc1ccc(O)cc1)C(=O)N[C@H](C(=O)NCC(=O)N[C@@H](CO)C(=O)N[C@@H](CCCNC(=N)N)C(=O)O)[C@@H](C)CC)[C@@H](C)O [PA-C16-GTAGLKKK-YIGSR, PA-C16-GTAGLKKK-YIGSR (SEQ ID NO:19)] (Palmitoyl-GTAGLKKKYIGSR-OH; N-terminus and C-terminus assumed)
